Molecular target: T1, acyl-CoA:cholesterol acyltransferase (ACAT) (Oryctolagus cuniculus, UniProt G1SFD9)
T1 construct: rabbit intestinal microsomal fraction; from tissue; host or cells: rabbit intestine, microsomal fraction
T1 sequence (G1SFD9 1-524): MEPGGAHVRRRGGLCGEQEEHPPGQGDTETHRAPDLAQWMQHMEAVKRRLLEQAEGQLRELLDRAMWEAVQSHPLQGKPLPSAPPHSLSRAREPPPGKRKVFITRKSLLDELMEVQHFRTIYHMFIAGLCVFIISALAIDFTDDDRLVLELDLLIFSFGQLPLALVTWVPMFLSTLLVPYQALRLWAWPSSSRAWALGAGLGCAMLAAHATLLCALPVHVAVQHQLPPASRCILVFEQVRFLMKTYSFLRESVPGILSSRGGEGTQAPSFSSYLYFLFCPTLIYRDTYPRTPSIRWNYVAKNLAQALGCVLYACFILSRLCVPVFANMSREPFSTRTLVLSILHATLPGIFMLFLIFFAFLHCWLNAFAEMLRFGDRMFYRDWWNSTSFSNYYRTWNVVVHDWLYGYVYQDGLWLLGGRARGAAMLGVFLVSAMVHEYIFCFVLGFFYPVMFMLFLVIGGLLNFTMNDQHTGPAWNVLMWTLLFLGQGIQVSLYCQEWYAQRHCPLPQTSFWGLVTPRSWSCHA
Experiment: inhibition of cholesterol esterification by ACAT, rabbit intestinal microsomal fraction (cholesteryl oleate formation from endogenous cholesterol and exogenous 14C-oleoyl-CoA)
Format: biochemical
Conditions: rabbit intestinal microsomes; in vitro; read-out: IC50, concentration of test compound required to inhibit cholesteryl oleate formation to 50% of control
Experimental: The compounds of the present invention were tested for their ability to inhibit the esterification of cholesterol by the enzyme acyl-CoA:cholesterol acyltransferase (ACAT). The data in the table below is expressed as IC50 values, i.e., the concentration of test compound required to inhibit cholesteryl oleate formation to 50% of control.
The in vitro test employed is more fully described in Field, F. J. and Salome, R. G., Biochemica et Biophysica Acta, Vol. 712, pages 557-570 (1982). The assay evaluates the ability of a test compound to inhibit the esterification of cholesterol using endogenous cholesterol of a rabbit intestinal microsomal fraction and exogenous ^14 C-oleoyl-CoA as reactants.

With COC(=O)C(C)(C)CCCOc1cc(C)c(OC(=O)Nc2c(C(C)C)cccc2C(C)C)cc1C [Example 15, 5-[4-[[[[2,6-Bis(1-methylethyl)phenyl]amino]carbonyl]oxy]-2,5-dimethylphenoxy]-2,2-dimethylpentanoic acid, methyl ester] the IC50 was greater than 5 µM.

System: not listed separately
Experiment: elevation of HDL at 50 mg/kg relative to gemfibrozil 50 mg/kg (procedure of U.S. Pat. No. 4,413,011)
Format: in vivo
Conditions: ratio of HDL elevation, test drug 50 mg/kg vs gemfibrozil 50 mg/kg; 1 = as effective as gemfibrozil
Experimental: Additionally, the elevation of HDL is reported in the table as a ratio of the elevation of HDL effected by a dose of 50 mg/kg of the test drug divided by the elevation of HDL effected by a 50 mg/kg dose of gemfibrozil which is used as a control in each experiment. [formula] Thus, a figure of 1 means that the test drug was as effective as gemfibrozil in elevating HDL. […] The test procedure is described in U.S. Pat. No. 4,413,011 which is herein incorporated by reference.

Going from CCCCOc1cc(C)c(OCCCC(C)(C)C(=O)OC)cc1C [Example 2, 5-(4-Butoxy-2,5-dimethylphenoxy)-2,2-dimethylpentanoic acid, methyl ester] to CCOc1cc(C)c(OCCCC(C)(C)C(=O)OC)cc1C [Example 3, 5-(4-Ethoxy-2,5 dimethylphenoxy)-2,2 dimethylpentanoic acid, methyl ester], the “Δ HDL Test Compound / Δ HDL Gemfibrozil” value rises from 0.85 to 1.2.

Going from COc1cc(C)c(OCCCC(C)(C)C(=O)O)cc1C [Example 4, 5-(4-Methoxy-2,5-dimethylphenoxy)-2,2-dimethylpentanoic acid] to CCOc1cc(C)c(OCCCC(C)(C)C(=O)O)cc1C [Example 6, 5-(4-Ethoxy-2,5-dimethylphenoxy)-2,2-dimethylpentanoic acid], the “Δ HDL Test Compound / Δ HDL Gemfibrozil” value rises from 1.2 to 1.4.

Going from CCCCOc1cc(C)c(OCCCC(C)(C)C(=O)O)cc1C [Example 5, 5-(4-Butoxy-2,5-dimethylphenoxy)-2,2-dimethylpentanoic acid] to Cc1cc(OCc2ccccc2)c(C)cc1OCCCC(C)(C)C(=O)O [Example 14, 5-[2,5-Dimethyl-4-(phenylmethoxy)phenoxy]-2,2-dimethylpentanoic acid], the “Δ HDL Test Compound / Δ HDL Gemfibrozil” value rises from 0.9 to 1.0.

Compared with COC(=O)C(C)(C)CCCOc1c(C)cc(OC(=O)C(C)(C)C)c(C)c1C [Example 7, 5-[4-(2,2-Dimethyl-1-oxopropoxy)-2,3,6-trimethylphenoxy]-2,2 dimethylpentanoic acid, methyl ester], COC(=O)C(C)(C)CCCOc1cc(C)c(OCc2ccccc2)c(C)c1C [Example 8, 2,2-Dimethyl-5-[2,3,5-trimethyl-4-(phenylmethoxy)phenoxy]pentanoic acid, methyl ester] is lower in “Δ HDL Test Compound / Δ HDL Gemfibrozil” value: 1.1 for the first, 1.0 for the second.

Cc1cc(OCCCC(C)(C)C(=O)O)c(C)c(C)c1OCc1ccccc1 [Example 9, 2,2-Dimethyl-5-[2,3,5-trimethyl-4-(phenylmethoxy)-phenoxy]pentanoic acid] and Cc1cc(OCCCC(C)(C)CO)c(C)c(C)c1OCc1ccccc1 [Example 10] are the same in “Δ HDL Test Compound / Δ HDL Gemfibrozil” value: 0.9 for the first, 0.9 for the second.

With COC(=O)C(C)(C)CCCOc1cc(C)c(OCc2ccccc2)c(C)c1 [Example 11, 5-[3,5-Dimethyl-4-(phenylmethoxy)phenoxy]-2,2-dimethylpentanoic acid, methyl ester] the “Δ HDL Test Compound / Δ HDL Gemfibrozil” value was 1.2.

System: coronary heart disease
Experiment: not given
Conditions: human, in vivo; cited from earlier work

In the case of Cc1ccc(C)c(OCCCC(C)(C)C(=O)O)c1 [gemfibrozil], the “effect on HDL (in words)” value is listed as “elevates HDL”.

For Cc1ccc(C)c(OCCCC(C)(C)C(=O)O)c1 [gemfibrozil], the “effect on LDL (in words)” value is listed as “lowers LDL”.

Same assay, conditions: patients with elevated cholesterol levels; five-year trial; cited from earlier work

For Cc1ccc(C)c(OCCCC(C)(C)C(=O)O)c1 [gemfibrozil], the “reduction of the rate of heart attack and sudden cardiac death” value is listed as 34%.

Source: patent US5166398A, “4-oxy-substituted phenoxyalkyl carboxylic acid, ester, and alcohol derivatives as antihyper-cholesterolemic and antiatherosclerotic agents” (Warner-Lambert Co., priority 1991, dated 1992)
